Source: patent publication US20080152717A1 (ISP INVESTMENTS, INC., priority 2006, published 2008)

Test: Relative bioavailability in fasted male Sprague Dawley rats, oral solid dose 100 mg/kg (Example 2)
Type: in vivo
Details: male Sprague Dawley rat, oral solid dose 100 mg/kg
Method: The relative bioavailability of the PVP based composition of Example 1 was compared to the crystalline form in male Sprague Dawley rat in a parallel study design. An oral, solid dose of 100 mg/kg was administered to the rats in the fasted state.

- AUC0-24h (area under the drug plasma concentration vs. time profile): 40000 ng·h/mL
SMILES: CCCCC(=O)N(Cc1ccc(-c2ccccc2-c2nnn[nH]2)cc1)[C@H](C(=O)O)C(C)C [Valsartan, N-(1-oxopentyl)-N-[[2′-(1H-tetrazol-5-yl) [biphenyl]-4-yl]methyl]-L-valine]
